pIC50: −log10 of the molar value.
What was measured:
NF-κB signaling pathway = test: Cell-based dual luciferase NF-κB reporter assay (HEK293 cells, TNF stimulated); settings: Homo sapiens, HEK293
Outline: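 HEK293 cells transfected with Firefly luciferase and NF-κB-response-element NanoLuc plasmids; compounds at 100–0.005 µM in 1% DMSO. Cells stimulated with 2.5 ng/mL TNF 30 min after compound addition. Firefly and NanoLuc activities read after 6 h by Nano-Glo dual-luciferase detection.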

[1] = target: T1, human E3 ubiquitin-protein ligase RNF31 (HOIP) (Homo sapiens, UniProt Q96EP0); test: Cell-free HTRF-based HOIP inhibition assay; format: biochemical
T1 sequence (Q96EP0 695-1072 limits assumed): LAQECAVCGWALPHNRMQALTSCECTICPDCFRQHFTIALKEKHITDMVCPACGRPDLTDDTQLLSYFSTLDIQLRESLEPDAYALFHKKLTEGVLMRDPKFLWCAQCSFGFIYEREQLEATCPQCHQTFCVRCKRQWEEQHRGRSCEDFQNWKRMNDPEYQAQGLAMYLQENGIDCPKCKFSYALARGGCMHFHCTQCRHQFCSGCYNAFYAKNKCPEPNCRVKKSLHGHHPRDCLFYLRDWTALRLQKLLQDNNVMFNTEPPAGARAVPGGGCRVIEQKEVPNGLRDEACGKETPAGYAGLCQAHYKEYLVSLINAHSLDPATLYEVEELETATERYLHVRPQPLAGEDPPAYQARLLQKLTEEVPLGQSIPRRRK
Outline: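 HTRF read (ex 337 nm; em 665 and 620 nm) after a 2.5 h, 25° C. ubiquitination step started by adding E2 plus substrates. Before that, E. coli-expressed human HOIP fragment and E1 were incubated 1 h at 25° C. with compound at 100-0.005 μM, 1% DMSO final.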

[2] = system: bladder carcinoma RT4 cell line; test: TNF-α-induced cytotoxicity assay (CellTiter-Glo viability); format: cell-based; settings: Homo sapiens, RT-4, 72 h
Outline: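 RT4 bladder carcinoma cells, 1000 per well, stimulated with 1.25 ng/mL TNFα together with compound for 72 h at 37° C., 5% CO2. Viability read by CellTiter-Glo luminescence, proportional to cellular ATP, as a measure of HOIP-dependent cytotoxicity.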

pIC50 (NF-κB signaling pathway)	pIC50 [1]	SMILES	pIC50 [2]
≥ 5.00	≥ 7.00	COc1ccc(S(=N)(=O)/C=C/CNC(=O)c2cc3c([nH]c2=O)CCN(C(=O)OCCF)C3)cc1F (stereo not drawn) [Example 180, 2-fluoroethyl 3-{[(2E)-3-[(3-fluoro-4-methoxyphenyl)(imino)oxo-λ^6-sulfanyl]prop-2-en-1-yl]carbamoyl}-2-oxo-1,2,5,6,7,8-hexahydro-1,6-naphthyridine-6-carboxylate]	≥ 5.00
≥ 4.00	≥ 6.00	N=S(=O)(/C=C/CNC(=O)c1cc2c([nH]c1=O)CCN(C(=O)OCCF)C2)c1ccccc1 (stereo not drawn) [Example 181, 2-fluoroethyl 3-{[(2E)-3-[imino(oxo)phenyl-λ^6-sulfanyl]prop-2-en-1-yl]carbamoyl}-2-oxo-1,2,5,6,7,8-hexahydro-1,6-naphthyridine-6-carboxylate]	≥ 5.00
≥ 4.00	≥ 6.00	N=S(=O)(/C=C/CNC(=O)c1cc2c([nH]c1=O)CCN(C(=O)OCC(F)F)C2)c1ccccc1 (stereo not drawn) [Example 182, 2,2-difluoroethyl 3-{[(2E)-3-[imino(oxo)phenyl-λ^6-sulfanyl]prop-2-en-1-yl]carbamoyl}-2-oxo-1,2,5,6,7,8-hexahydro-1,6-naphthyridine-6-carboxylate]	≥ 5.00

Source: patent publication US20260250250A1, “3-(SULPHONYL OR SULFONIMIDOYL)PROP-2-EN-1-YL]-2-OXO-1,2-DIHYDROPYRIDINE-3-CARBOXAMIDE DERIVATIVES” (Flinder Therapeutics B.V., priority 2022, published 2026)
